Series [1] has as its system CTLL-2. The series is described as follows: Induction of ferroptosis in mouse CTLL-2 cells assessed as increase in ROS level at 10 uM incubated for 45 mins in presence of 2-APB. The format is functional, cell-based.
A short description of series [2]: AUC in Sprague-Dawley rat at 50 mg/kg, po measured for 0.083 to 24 hrs by HPLC analysis. The format is ADME, organism-based. To be noted: in vivo, time 0.083-24 hrs.
For series [3], the system named is Mus musculus. The series is described as follows: Anti-aplastic anemia activity in C57BL/6J mouse model of immune-mediated bone marrow failure assessed as increase in animal survival at 5 to 15 mg/kg, IG qd treated for 21 days. To be noted: dose 5-15 mg/kg, time 21.0 day. Format: functional, organism-based.
The test system of series [4] is Mus musculus. The series is described as follows: Anti-aplastic anemia activity in BALB/c mouse model of immune-mediated bone marrow failure assessed as increase in body weight at 10 mg/kg, po treated for 14 days. The format is functional, organism-based. To be noted: time 14.0 day.
The test system of series [5] is CD8-positive T cell. The series is described as follows: Inhibition of CD3/CD28-activated CD8-positive T cell proliferation in BALB/c mouse lymph nodes incubated for 72 hrs by CFSE staining based flow cytometry. To be noted: Lymph node, dose 1-10 µM. Format: functional, tissue-based. On the technique in general: In flow cytometry, cells or beads pass a laser one at a time.

For series [6], the system named is Mus musculus. The series is described as follows: Anti-aplastic anemia activity in BALB/c mouse model of immune-mediated bone marrow failure assessed as increase in platelet cells at 10 mg/kg, po treated for 14 days. To be noted: time 14.0 day. The format is functional, organism-based.
Series [7] concerns Mus musculus. The series is described as follows: Anti-aplastic anemia activity in BALB/c mouse model of immune-mediated bone marrow failure assessed as increase in animal survival at 10 mg/kg, po treated for 14 days. The format is functional, organism-based. To be noted: time 14.0 day.
For series [8], the system named is CD8-positive T cell. The series is described as follows: Inhibition of CD3/CD28-activated CD8-positive T cell activation in BALB/c mouse lymph nodes assessed as decrease in glucose consumption at 1 to 10 uM incubated for 72 hrs. Format: functional, tissue-based. To be noted: Lymph node, dose 1-10 µM.
Series [9] deals with CTLL-2. The series is described as follows: Induction of ferroptosis in IL-2-stimulated mouse CTLL-2 cells assessed as increase in pERK level at 30 uM incubated for 6 hrs followed by Fer-1 addition measured after 10 hrs by Western blot analysis. Format: functional, cell-based. To be noted: time 16.0 hrs. In general terms: A western blot detects proteins with antibodies after separation by electrophoresis.

The subject of series [10] is Mus musculus. The series is described as follows: Anti-aplastic anemia activity in C57BL/6J mouse model of immune-mediated bone marrow failure assessed as increase in hemoglobin level treated intragastrically once daily for 21 days. To be noted: dose 5-15 mg/kg, route ig, time 21.0 day. Format: functional, organism-based.
The subject of series [11] is Mus musculus. The series is described as follows: Anti-aplastic anemia activity in C57BL/6J mouse model of immune-mediated bone marrow failure assessed as reduction in proportion of effector CD8+ T cells at 5 to 15 mg/kg, IG qd treated for 12 days by flow cytometry. To be noted: dose 5-15 mg/kg, time 12.0 day. Format: functional, organism-based.
Series [12] concerns HL-60. The series is described as follows: Cytotoxicity against human HL-60 cells assessed as inhibition of cell viability incubated for 72 hrs by CCK8 assay. The format is functional, cell-based. To be noted: HL-60, 72 h. Background: Tetrazolium assays rely on reduction of a dye to a coloured formazan, in cell work by metabolically active cells.
In series [13] the test system is CTLL-2. The series is described as follows: Cytotoxicity against mouse CTLL-2 cells assessed as inhibition of cell viability incubated for 72 hrs by CCK8 assay. The format is functional, cell-based. To be noted: CTLL-2, 72 h, read-out: IC50.
Series [14] has as its system CD8-positive T cell. The series is described as follows: Inhibition of CD3/CD28-activated CD8-positive T cell activation in BALB/c mouse lymph nodes assessed as decrease in TNF-alpha level at 1 to 10 uM incubated for 72 hrs by ELISA. To be noted: Lymph node, dose 1-10 µM. The format is functional, tissue-based.
Series [15] concerns Mus musculus. The series is described as follows: Anti-aplastic anemia activity in C57BL/6J mouse model of immune-mediated bone marrow failure assessed as CD4+ T cells at 5 mg/kg, IG qd treated for 12 days by flow cytometry (reference value: 12.93 %). The format is functional. To be noted: time 12 day.
Series [16] relates to CTLL-2. The series is described as follows: Induction of ferroptosis in mouse CTLL-2 cells assessed as increase in free Fe2+ level incubated for 16 hrs by FerroOrange staining based flow cytometry. To be noted: dose 7.5-30 µM. The format is functional, cell-based.
For series [17], the system named is THP-1. The series is described as follows: Cytotoxicity against human THP-1 cells assessed as inhibition of cell viability incubated for 72 hrs by CCK8 assay. Format: functional, cell-based. To be noted: THP-1, 72 h.
The test system of series [18] is CD8-positive T cell. The series is described as follows: Inhibition of CD3/CD28-activated CD8-positive T cell activation in BALB/c mouse lymph nodes assessed as decrease in cluster formation of cells at 1 to 10 uM incubated for 72 hrs by microscopy. To be noted: Lymph node, dose 1-10 µM. Format: functional, cell-based.
In series [19] the test system is IEC-6. The series is described as follows: Cytotoxicity against rat IEC-6 cells assessed as inhibition of cell viability incubated for 72 hrs by CCK8 assay. Format: functional, cell-based. To be noted: IEC-6, 72 h.
The nature of series [20]: Oral bioavailability in Sprague-Dawley rat at 50 mg/kg measured for 0.083 to 24 hrs by HPLC analysis. The format is ADME, organism-based. To be noted: in vivo, time 0.083-24 hrs.
In series [21] the test system is Mus musculus. The series is described as follows: Anti-aplastic anemia activity in C57BL/6J mouse model of immune-mediated bone marrow failure assessed as restoration of naive CD8+ T cells at 5 to 15 mg/kg, IG qd treated for 12 days by flow cytometry. The format is functional, organism-based. To be noted: dose 5-15 mg/kg, time 12.0 day.
Series [22] deals with Mus musculus. The series is described as follows: Anti-aplastic anemia activity in C57BL/6J mouse model of immune-mediated bone marrow failure assessed as CD8+ T cells at 10 mg/kg, IG qd treated for 12 days by flow cytometry (reference value: 72.15 %). To be noted: time 12 day. Format: functional.
Series [23] concerns Mus musculus. The series is described as follows: Anti-aplastic anemia activity in BALB/c mouse model of immune-mediated bone marrow failure assessed as increase in peripheral red blood cells at 10 mg/kg, po treated for 14 days. Format: functional, organism-based. To be noted: time 14.0 day.
The test system of series [24] is CTLL-2. The series is described as follows: Induction of ferroptosis in IL-2-stimulated mouse CTLL-2 cells assessed as increase in intracellular lipid peroxidation level at 30 uM incubated for 6 hrs followed by Fer-1 addition measured after 10 hrs by flow cytometry. The format is functional, cell-based. To be noted: time 16.0 hrs.
The nature of series [25]: Drug metabolism in rat plasma assessed as double hydrolyzation/double demethylation-mediated metabolite formation at 50 mg/kg, po measured for 24 hrs by HRMS analysis. The format is ADME, organism-based. To be noted: in vivo.
Series [26] in a line: Drug metabolism in rat plasma assessed as hydrolyzation/demethylation-mediated metabolite formation at 50 mg/kg, po measured for 24 hrs by HRMS analysis. Format: ADME, organism-based. To be noted: in vivo.
Series [27] can be described thus: Stability in mouse blood assessed as compound remaining at 50 mg/kg, po measured for 0.083 to 8 hrs by HPLC analysis. The format is ADME, organism-based. To be noted: in vivo, time 0.083-8 hrs.
A short description of series [28]: Drug metabolism in mouse liver assessed as cinnamic acid metabolite formation at 50 mg/kg, po measured for 0.083 to 8 hrs by HPLC analysis. Format: ADME, organism-based. To be noted: in vivo, time 0.083-8 hrs.
Series [29] can be described thus: Drug metabolism in mouse blood assessed as (4bR,9S)-1-(hydroxymethyl)-3,7-dimethoxy-11-methyl-6-oxo-6,8a,9,10-tetrahydro-5H-9,4b-(epiminoethano)phenanthren-4-yl cinnamate metabolite formation at 50 mg/kg, po measured for 0.083 to 8 hrs by HPLC analysis. The format is ADME, organism-based. To be noted: in vivo, time 0.083-8 hrs.
Series [30] in a line: Drug metabolism in rat plasma assessed as double hydrolyzation/demethylation-mediated metabolite formation at 50 mg/kg, po measured for 24 hrs by HRMS analysis. Format: ADME, organism-based. To be noted: in vivo.
Series [31] in a line: Stability in mouse liver assessed as compound remaining at 50 mg/kg, po measured for 0.083 to 8 hrs by HPLC analysis. The format is ADME, organism-based. To be noted: in vivo, time 0.083-8 hrs.
Series [32] is described as follows: Drug metabolism in rat plasma assessed as double hydrolyzation/hydroxylation-mediated metabolite formation at 50 mg/kg, po measured for 24 hrs by HRMS analysis. Format: ADME, organism-based. To be noted: in vivo.
A short description of series [33]: Drug metabolism in rat plasma assessed as cinnamic acid metabolite formation at 50 mg/kg, po measured for 24 hrs by HRMS analysis. To be noted: in vivo. Format: ADME, organism-based.
Series [34] can be described thus: Stability in mouse lymph node assessed as compound remaining at 50 mg/kg, po measured for 0.083 to 8 hrs by HPLC analysis. The format is ADME, organism-based. To be noted: in vivo, time 0.083-8 hrs.
Series [35] in a line: Stability in mouse plasma at 37 degreeC. The format is ADME, cell-free.

As a reminder, the AUC is the area under the concentration-time curve, a measure of exposure. A higher AUC goes with more exposure. For orientation: pIC50 means the IC50 on a negative log10 scale, so that one unit is a factor of ten. Usually bioavailability stands for dose-corrected exposure relative to a reference, in per cent.

pIC50: −log10 of the molar value. Calls of active or inactive are those of the source. The rule behind the calls is not given here.

`COC1=C[C@@H]2[C@@H]3Cc4c(CO)cc(OC)c(OC(=O)/C=C/c5ccccc5)c4[C@]2(CCN3C)CC1=O`: the outcome in series [1], in [9] and in series [24] was inactive. In addition, the AUC in series [2] was determined as 15400 ng·h/mL. Moreover, the Activity result in [3] was “Active; Improvement Observed During Early Stages Of Bone Marrow Failure”; in series [7] it was “Active; All Mice Survived”; in series [10] it was “Dose-dependent-effect”; in series [15] it was 11.38%; in series [16], “Dose-dependent-effect”; in series [21], “Active; Partial Restoration Of Naive Cd8+ T Cells Was Observed”. For the same compound, the Activity in [22] was determined as 38.55%. The outcome in series [4], in series [6], in series [11] and in series [23] was Active. For the same compound, the inhibition result in [5] is “Dose-dependent-effect”. The inhibition result in series [8], in series [14] and in [18] was “Active” in each case. The pIC50 in series [12] is 3.88; in series [13], 4.42; in series [17], 3.90; in [19] it was 4.07. Further, in series [20], the bioavailability is 59.2%.

Turning to `COC1=C[C@@H]2[C@@H]3Cc4c(COC(=O)/C=C/c5ccccc5)cc(OC)c(OC(=O)/C=C/c5ccccc5)c4[C@]2(CCN3C)CC1=O`, the Drug metabolism result in series [25], in series [26], in series [28], in series [29], in [30] and in series [32] was “metabolite_detected” throughout. Besides, the Drug metabolism entry in [33] was “metabolite_notdetected”. Further, in series [7], the outcome was Active. For the same compound, the Stability result in series [27], in series [31], in [34] and in series [35] was “Unstable” each time. Further, the bioavailability in series [20] turned out to be 18%.

Values taken from ChEMBL document CHEMBL6177973, “A Novel Compound 3a-M1, from Metabolites of Sinomenine Derivative 3a, Exerts Potent Anti-Aplastic Anemia Activity via IP3R/ORAI-Mediated CTL Ferroptosis” (J Med Chem, 2025).
